Starred links: 1 amine or outer side, 2 acyl side, 3 side chain; linkers in the order of their positions; H or OH if unused. Residues, ends and D or L forms follow the SMILES beside them. *: point of attachment. X1 = CC(C)(C)c1cc(C(=O)*)cc(C(C)(C)C)c1O; Suc = O=C(CCC(=O)[*:2])[*:1]
How the values were obtained:
[1] = CD spectra: conformation of peptides in water and TFE; format: physicochemical; conditions: fits ±3% (SEM of fit)
Description: CD Spectra. Circular dichroic (CD) spectra of samples in 1 mm circular cuvettes were recorded at room temperature on a Jasco J-500A Spectropolarimeter with 2 nm slit width. The CD spectrum of buffer was subtracted from the CD spectrum of the sample after each scan. The scan rate is 2 nm/min and the time constant was 8 sec. Data was collected at 0.04 nm intervals and averaged over a 0.2 nm interval.

[2] = tested on: soy phosphatidyl-choline (PC); experiment: Antioxidant activity: inhibition of Fe-initiated lipid peroxidation (TBARs); format: biochemical
Description: Antioxidant Activity. Peptides were dissolved in trifluoroethanol (TFE) and mixed with soy phosphatidyl-choline (PC) in chloroform. After drying under a N2 stream, the mixture was resuspended in ethanol and injected into buffer (50 mM NaCl, 50 mM Tris-HCl, pH 7.0) to obtain a final concentration of 0.5 mM phospholipid. Peroxidation was initiated with 50 μM Fe^2+ plus a mixture of 50 μM Fe^3+ and 250 μM histidine. At intervals over a period of 15 min at 37° C., 1 mL samples of the reaction mixture were taken for determination of TBARs (thiobarbituric acid reactive substances). Two mL of a mixture of 2 parts of 0.67% thiobarbituric acid/0.05N NaOH and 1 part of 10% trichloroacetic acid and 0.05 mL of 2% butylated hydroxytoluene were added. Reaction proceeded for 30 min at 100° C. The tubes were then cooled, centrifuged for 15 min at 3000 rpm and transferred to acrylic cuvettes. The differences in absorbance at 532 nm and 700 nm (to correct for light scattering) were measured and the TBARs were calculated in units of malondialdehyde equivalents using a molar extinction coefficient of 1.56×10^5 M^-1 cm^-1.

[3] = tested on: surfactant-deficient lavaged adult rat lungs; experiment: Isolated rat lavaged lung model (pressure-volume deflation curves); format: in vivo; conditions: for effect on the pressure-volume (P-V) curve of the lavaged lung: statement in words
Source text: Methods of testing the synthetic surfactant preparations for efficacy are well known in the art. For example, the synthetic surfactant preparations of the present invention can be tested in any appropriate manner such as in the adult rat lung model (Ikegami, et al., (1979) Pediatr. Res. 13, 777-780).
Pressure-volume characteristics of surfactant-depleted rat lungs are similar to those of lungs of infants with hyaline membrane disease and restoration of the pressure-volume relationship of the lung to normal is related to the amount of surfactant instilled in a dose dependent manner. (Bermel, M. S., et al., Lavaged excised rat lungs as a model of surfactant deficiency, Lung 162:99-113 (1984)).
Isolated Rat Lavaged Lung Model. The experimental procedures for animal preparation, pressure-volume curve registration and lung lavage were adapted from those described by Ikegami et al., Pediatr. Res. 11:178-182 (1977) and Pediatr. Res. 13:777-780 (1979, and Bermel et al, Lung 162:99-113 (1984). Male Sprague Dawley rats (200-250 g) were anesthetized with sodium pentobarbital and exsanguinated. The trachea was cannulated and the thoracic organs were removed en bloc. After removal of the adventitious tissue, the trachea and lungs (~2 g) were suspended in saline (0.9%), placed in a vacuum chamber, and degassed according to the procedure of Stengel et al. the degassed lungs were suspended in saline in a 37° C., jacketed reservoir and the tracheal cannula was connected both to a water manometer and a glass syringe by a T-tube. The glass syringe was placed in an infusion/withdrawal pump. Lungs were rapidly inflated with air to 30 cm H2 O pressure at the rate of 10 ml/min to minimize air trapping, and were maintained at this pressure for 10 min by intermittently adding air to the lungs. The total volume of air infused was recorded as the total lung capacity (TLC) which was generally 14-15 ml. The lungs were then deflated at a rate of 2.5 ml/min until zero pressure was attained. During deflation, pressure was read from the water manometer at 1 cm intervals and recorded. […] After degassing and equilibration, the lungs were rendered surfactant-deficient by repeated lavage with 5 ml/g lavage buffer (0.9% NaCl, 10 mM HEPES, pH 7.4). The procedures of degassing, equilibrating, and lavaging were repeated (15-20 times) until the pressure-volume curve had become distinctly sigmoidal in shape and the volume of air remaining in the lungs at 5 cm H2 O pressure was less than or equal to 3 ml. At this point, the lungs were considered surfactant-deficient. For testing, 2 ml of 0.9% NaCl, 10 mM HEPES buffer, pH 7.4, were added to the dry lung surfactants (25 mg of phospholipid; 100-125 mg/kg) and the mixture was vortexed, flushed with nitrogen and incubated for 1 h at 45° C. The mixture was then vortexed again, degassed if foamy, and 2 ml of the test mixture were introduced into and withdrawn from the lungs four times by syringe. When the test mixture was reintroduced to the lungs for the fifth time, it was allowed to remain in the lungs. This procedure was adopted to encourage even distribution of the material throughout the lung. The lungs were degassed, allowed to equilibrate at 37° C. for 5 min, and a P-V measurement was performed. […] The deflation limbs of the pressure-volume (P-V) curves in adult rat lungs were analyzed by calculating the total lung capacities (%TLC) at 5 and 10 cm H2 O pressure (PC5 and PC10).

[4] = Surface tension of an oscillating bubble in a pulsating bubble surfactometer; format: physicochemical; conditions: after 10 min of pulsing, 37° C.
Description: Surface Tension Measurements. The minimum and maximum surface tension of an oscillating bubble were measured on samples at 37° C. with a cycle rate of 20 per min in a pulsating bubble surfactometer (PBS, Electronetics Corp.), essentially as described by Enhorning, J. Appl. Physiol 43:198-203 (1977). The plastic cample chamber was rinsed with a dilute solution of dishwashing detergent, thoroughly rinsed with water and dried under a stream of N2 prior to use.

[5] = water, fit to standard spectra of Greenfield & Fasman

γmin (minimum surface tension) ([4]; mixture with DPPC, 20 cycles per min) | γmin (minimum surface tension) ([4]; unsonicated liposomes) | SMILES | Conformation based on CD spectra: α ([1]; TFE, first TFE column) | Conformation based on CD spectra: α (second TFE column) ([1]; TFE, second TFE column) | Conformation based on CD spectra: α [1, 5] | Conformation based on CD spectra: β [1, 5] | antioxidant activity (inhibition of lipid peroxidation) ([2]; in soy PC mixtures, 50 μM Fe2+ plus 50 μM Fe3+/250 μM histidine, 37° C., 15 min) | effect on the pressure-volume (P-V) curve of the lavaged lung [3] | time for which oxidation is totally inhibited ([2]; 0.6% (by weight), added to WMAP10 in soy PC mixtures, data not shown) | PC5 (% TLC at 5 cm H2O) ([3]; no dose given, mean ± SEM, n=4) | PC10 (% TLC at 10 cm H2O) ([3]; no dose given, mean ± SEM, n=4) | restoration (based on PC5) ([3]; no dose given, relative to sufficient and deficient measurements on the same lungs, mean ± SEM)
 |  | CC(C)C[C@H](NC(=O)CCC(=O)O)C(=O)N[C@@H](CC(C)C)C(=O)N[C@@H](CCC(=O)O)C(=O)N[C@@H](CCCCN)C(=O)N[C@@H](CC(C)C)C(=O)N[C@@H](CC(C)C)C(=O)N[C@@H](CCC(=O)O)C(=O)N[C@@H](CCCCNC(=O)c1cc(C(C)(C)C)c(O)c(C(C)(C)C)c1)C(=O)N[C@@H](CC(C)C)C(=O)N[C@@H](CCCCN)C(N)=O [HBB-LysMAP10, Suc-Leu-Leu-Glu-Lys-Leu-Leu-Glu-Ne-HBB-Lys-Leu-Lys-NH2] (Suc-LLEKLLEK(X1)LK-NH2) | 78 | 0 | 59 | 4 | effective antioxidants |  |  |  |  | 
slightly increased |  | CC(C)(Sc1cc(C(C)(C)C)c(O)c(C(C)(C)C)c1)Sc1cc(C(C)(C)C)c(O)c(C(C)(C)C)c1 [Probucol] |  |  |  |  |  | does not diminish the activity | at least 8 min |  |  | 
 | 38 mN/m | CCCCCCCCCCCCCCCC(=O)OC[C@H](COP(=O)([O-])OCC[N+](C)(C)C)OC(=O)CCCCCCCCCCCCCCC [DPPC, dipalmitoylphosphatidylcholine] |  |  |  |  |  | no significant effect |  | 13 ± 1 % TLC | 31 ± 2 % TLC | -11 ± 8%

— US5683982A, “Synthetic lung surfactant having antioxidant properties” (Merrell Pharmaceuticals Inc., priority 1995, dated 1997)
